Tests used:
HT1080 cells = test: HT1080 cellular assay, 2-HG by LC-MS (IDH1 R132C); format: cell-based; conditions: Homo sapiens, HT-1080
Method: The following describes the experimental procedures that can be used to obtain data on column 5 of Table 4.
Cells (HT1080 or U87MG) are grown in T125 flasks in DMEM containing 10% FBS, 1× penicillin/streptomycin and 500 ug/mL G418 (present in U87MG cells only). They are harvested by trypsin and seeded into 96 well white bottom plates at a density of 5000 cell/well in 100 ul/well in DMEM with 10% FBS. No cells are placed in columns 1 and 12. Cells are incubated overnight at 37° C. in 5% CO2. The next day test compounds are made up at 2× the final concentration and 100 ul are added to each cell well. The final concentration of DMSO is 0.2% and the DMSO control wells are plated in row G. The plates are then placed in the incubator for 48 hours. At 48 hours, 100 ul of media is removed from each well and analyzed by LC-MS for 2-HG concentrations. The cell plate is placed back in the incubator for another 24 hours. At 72 hours post compound addition, 10 mL/plate of Promega Cell Titer Glo reagent is thawed and mixed. The cell plate is removed from the incubator and allowed to equilibrate to room temperature. Then 100 ul of Promega Cell Titer Glo reagent is added to each well of media. The cell plate is then placed on an orbital shaker for 10 minutes and then allowed to sit at room temperature for 20 minutes. The plate is then read for luminescence with an integration time of 500 ms.
HT1080 cells are maintained in RPMI containing 10% FBS, 1× penicillin/streptomycin. […] The next day compounds are prepared in 100% DMSO and then diluted in media for a final concentration of 0.2% DMSO. Media is removed from the cell plates and 200 μL of the compound dilutions are added to each well. […] The cell plates are then allowed to incubate another 24 hours.

[1] = target: IDH1 wt/IDH1 R132H heterodimer (Homo sapiens (Human), UniProt O75874, R132H); test: IDH1 wt/R132H heterodimer NADPH depletion (diaphorase/resazurin) assay; format: biochemical; conditions: read-out: IDH1 wt/R132H NADPH/NADP IC50 not saturated
Method: The following describes the experimental procedures that can be used to obtain data on columns 2 and 4 of Table 4 and column 2 of Table 5.
In the primary reaction, the reduction of α-KG acid to 2-HG is accompanied by a concomitant oxidation of NADPH to NADP. The amount of NADPH remaining at the end of the reaction time is measured in a secondary diaphorase/resazurin reaction in which the NADPH is consumed in a 1:1 molar ratio with the conversion of resazurin to the highly fluorescent resorufin.
The mixture of compound, enzyme, and cofactor is pre-incubated at room temperature for 1 hr prior to the addition of alpha-ketoglutarate. To perform the secondary reaction, 10 uL of 1× buffer containing 36 μg/ml diaphorase and […] resazurin is added to the primary reaction and incubated for a further 5 minutes at 25° C. […] Compounds or compound dilutions are prepared in 100% DMSO concentration and diluted 1:50 into the final reaction. […] IC50s are determined.
IDH1 or IDH2 wildtype (wt) and mutant heterodimers are expressed and purified by methods known in the art. […] Co-expression of IDH1wt-his and IDH1R132C-flag is carried out in sf9 insect cells. […] Cells are disrupted with 4 passes through an M-Y110 Micro fluidizer (Microfluidics) set to 500 psi, and then centrifuged at 22,000 rcf for 20 min at 4° C. […]

IDH2 R140Q = IDH2 R140Q (Homo sapiens (Human), UniProt P48735, R140Q); test: IDH2 R140Q cofactor depletion assay (Table 4 column 7); format: biochemical
Text: The following describes the experimental procedures used to obtain data on column 7 of Table 4.
The reaction is terminated by the addition of a second enzyme, diaphorase, and a corresponding substrate, resazurin. Diaphorase reduces resazurin to the highly fluorescent resorufin with the concomitant oxidation of NADPH to NADP, both halting the IDH2 reaction by depleting the available cofactor pool and facilitating quantitation of the amount of cofactor remaining after a specific time period through quantitative production of an easily detected fluorophore.
The test compound is then incubated for one hour at room temperature with the enzyme; before starting the IDH2 reaction with the addition of 10 μl of substrate mix containing 4 μM NADPH and 1.6 mM α-KG in the buffer described above. After a further 16 hours of incubation at room temperature, the reaction is halted and the remaining NADPH measured through conversion of resazurin to resorufin by the addition of 25 μl Stop Mix (36 μg/ml diaphorase enzyme and 60 μM resazurin; in buffer).

[2] = system: U87MG pLVX-IDH2 R140Q-neo cells; test: U87MG pLVX-IDH2 R140Q-neo cell based assay, 2-HG by LC-MS; conditions: Homo sapiens, U-87 MG
[3] = target: IDH1-R132 homodimer enzyme (R132H) (Homo sapiens (Human), UniProt O75874, R132H); test: IDH1 R132H homodimer NADPH depletion assay (Table 4 column 3); format: biochemical
Method: (§1) The following describes the experimental procedures that can be used to obtain data on columns 3 and 6 of Table 4.
(§2) A test compound is prepared as 10 mM stock in DMSO and diluted to 50× final concentration in DMSO, for a 50 μl reaction mixture. IDH enzyme activity converting alpha-ketoglutarate to 2-hydroxyglutaric acid is measured using a NADPH depletion assay. In the assay the remaining cofactor is measured at the end of the reaction with the addition of a catalytic excess of diaphorase and resazurin, to generate a fluorescent signal in proportion to the amount of NADPH remaining. […] The reaction is started with the addition of 10 μl of Substrate Mix ([…], 5 mM alpha-ketoglutarate, in Assay Buffer) and the mixture is incubated for 90 minutes at room temperature.

IDH1 R132C = IDH1 R132C (Homo sapiens (Human), UniProt O75874, R132C); test: IDH1 R132C homodimer NADPH depletion assay (Table 4 column 6); format: biochemical
Method: as §1, §2
The concentration of NADPH and alpha-ketoglutarate in the Substrate Buffer is 20 μM and 1 mM, respectively.

Sequence of IDH1 wt/IDH1 R132H heterodimer (O75874 whole entry R132H): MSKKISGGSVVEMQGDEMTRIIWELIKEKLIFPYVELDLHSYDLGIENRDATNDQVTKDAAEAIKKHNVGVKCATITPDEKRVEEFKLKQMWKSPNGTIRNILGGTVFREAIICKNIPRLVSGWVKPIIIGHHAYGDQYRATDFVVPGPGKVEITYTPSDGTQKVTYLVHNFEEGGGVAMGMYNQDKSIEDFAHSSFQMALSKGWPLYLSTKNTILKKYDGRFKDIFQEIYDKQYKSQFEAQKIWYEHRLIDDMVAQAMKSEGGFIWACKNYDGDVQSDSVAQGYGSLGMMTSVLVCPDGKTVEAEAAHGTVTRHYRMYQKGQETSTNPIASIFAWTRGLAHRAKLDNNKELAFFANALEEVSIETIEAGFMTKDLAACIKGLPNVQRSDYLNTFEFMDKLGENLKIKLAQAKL
Sequence of IDH1 wt/IDH1 R132H heterodimer (O75874 whole entry, stated change not applied): as the sequence (O75874 whole entry R132H) above, with H132R counted along it
Sequence of IDH1 R132C (O75874 whole entry R132C): as the sequence (O75874 whole entry R132H) above, with H132C counted along it
Sequence of IDH2 R140Q (P48735 40-452 R140Q): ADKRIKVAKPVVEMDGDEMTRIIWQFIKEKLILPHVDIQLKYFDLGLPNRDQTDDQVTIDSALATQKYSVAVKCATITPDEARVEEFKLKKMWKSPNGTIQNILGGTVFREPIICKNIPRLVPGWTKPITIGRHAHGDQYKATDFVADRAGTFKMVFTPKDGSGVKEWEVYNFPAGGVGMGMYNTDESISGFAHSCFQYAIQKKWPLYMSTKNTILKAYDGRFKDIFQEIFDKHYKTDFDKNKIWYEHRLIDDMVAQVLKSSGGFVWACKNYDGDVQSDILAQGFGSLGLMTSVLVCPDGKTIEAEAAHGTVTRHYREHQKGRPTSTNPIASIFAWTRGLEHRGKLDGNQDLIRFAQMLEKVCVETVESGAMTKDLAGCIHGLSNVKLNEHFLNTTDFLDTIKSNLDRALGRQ
Sequence of IDH1-R132 homodimer enzyme (R132H) (O75874 whole entry R132H): as the sequence (O75874 whole entry R132H) above

CC(Nc1nc(Nc2ccnc(C(F)(F)F)c2)nc(-n2ccc(C(F)(F)F)n2)n1)C(F)(F)F (centres unmarked) [Compound 177]
IC50 (HT1080 cells): 50 to 100 nM

N#CC1(c2cc(Nc3nc(NC4CCC(F)(F)C4)nc(-n4ccc(C(F)(F)F)n4)n3)ccn2)CC1 (centres unmarked) [Compound 185]
IC50 (HT1080 cells): 50 to 100 nM

FC1(F)CCC(Nc2nc(Nc3ccnc(C(F)(F)F)c3)nc(-n3ccc(C(F)(F)F)n3)n2)C1 (centres unmarked) [Compound 173]
IC50 (HT1080 cells): 50 to 100 nM

FC1(F)CC[C@H](Nc2nc(Nc3ccnc(C(F)(F)F)c3)nc(-c3cccc(C(F)(F)F)n3)n2)C1 [Compound 158]
IC50 (HT1080 cells): 100 to 1000 nM

FC1(F)CC[C@@H](Nc2nc(N[C@@H]3CCC(F)(F)C3)nc(-c3cncc(C(F)(F)F)n3)n2)C1 [Compound 410]
IC50 (HT1080 cells): < 50 nM

N#CC1(c2cc(Nc3nc(N[C@H]4CCC(F)(F)C4)nc(-c4cccc(C(F)(F)F)n4)n3)ccn2)CC1 [Compound 133]
IC50 (HT1080 cells): 100 to 1000 nM

N#CC1(c2cc(Nc3nc(N[C@@H]4CCC(F)(F)C4)nc(-n4ccc(C(F)(F)F)n4)n3)ccn2)CC1 [Compound 350]
IC50 (HT1080 cells): 50 to 100 nM

FC1(F)CC[C@@H](Nc2nc(Nc3ccnc(C(F)(F)F)c3)nc(-c3cccc(C(F)(F)F)n3)n2)C1 [Compound 172]
IC50 (HT1080 cells): 50 to 100 nM

FC1(F)CCC(Nc2nc(Nc3ccnc(C(F)(F)F)c3)nc(-c3cccc(C(F)(F)F)n3)n2)C1 (centres unmarked) [Compound 178]
IC50 (HT1080 cells): 100 to 1000 nM

FC1(F)CC[C@@H](Nc2nc(N[C@H]3CCC(F)(F)C3)nc(-c3cncc(C(F)(F)F)n3)n2)C1 [Compound 399]
IC50 (HT1080 cells): < 50 nM

N#CC1(c2cc(Nc3nc(N[C@H]4CCC(F)(F)C4)nc(-n4ccc(C(F)(F)F)n4)n3)ccn2)CC1 [Compound 174]
IC50 (HT1080 cells): 50 to 100 nM

CC(C)(O)CNc1nc(Nc2ccnc(C(F)(F)F)c2)nc(-c2cccc(C(F)(F)F)n2)n1 [Compound 288]
IC50 [1]: 100 to 1000 nM
IC50 (IDH2 R140Q): 100 to 1000 nM
IC50 [2]: 100 to 1000 nM

Cc1cccc(-c2nc(NC3CCC(F)(F)CC3)nc(N[C@H](C)C3CC3)n2)n1 [Compound 50]
IC50 [1]: < 50 nM
IC50 [3]: < 50 nM
IC50 (IDH1 R132C): 50 to 100 nM

FC1(F)CC[C@H](Nc2nc(N[C@H]3CCC(F)(F)C3)nc(-c3cncc(C(F)(F)F)n3)n2)C1 [Compound 406]
IC50 (HT1080 cells): < 50 nM

FC1(F)CC(Nc2nc(Nc3ccnc(C(F)(F)F)c3)nc(-c3cccc(C(F)(F)F)n3)n2)C1 [Compound 190]
IC50 (HT1080 cells): 100 to 1000 nM

N#CC1(c2cc(Nc3nc(NC4CCC(F)(F)C4)nc(-c4cccc(C(F)(F)F)n4)n3)ccn2)CC1 (centres unmarked) [Compound 151]
IC50 (HT1080 cells): 50 to 100 nM

FC1(F)CC[C@H](Nc2nc(Nc3ccnc(C(F)(F)F)c3)nc(-n3ccc(C(F)(F)F)n3)n2)C1 [Compound 393]
IC50 (HT1080 cells): 100 to 1000 nM

FC1(F)CCC(Nc2nc(NC3CCC(F)(F)C3)nc(-c3cncc(C(F)(F)F)n3)n2)C1 (centres unmarked) [Compound 138]
IC50 (HT1080 cells): < 50 nM

N#CC1(c2cc(Nc3nc(N[C@@H]4CCC(F)(F)C4)nc(-c4cccc(C(F)(F)F)n4)n3)ccn2)CC1 [Compound 137]
IC50 (HT1080 cells): 50 to 100 nM

Source: patent US10946023B2, “Therapeutically active compounds and their methods of use” (Agios Pharmaceuticals, Inc., priority 2013, dated 2021)
